# Activity calls are given as the source filed them. The calls are words filed in the database; no cut-off is given here.
# Legend:
# [1] = test system: RAW264.7; assay: Inhibition of LPS-induced nitric oxide production in mouse RAW264.7 cells at 10 uM measured after 24 hrs by Griess reagent based assay relative to control; assay type: functional
# [2] = test system: RAW264.7; assay: Inhibition of LPS-induced nitric oxide production in mouse RAW264.7 cells; assay type: functional, cell-based
# [3] = test system: RAW264.7; assay: Inhibition of LPS-induced iNOS expression in mouse RAW264.7 cells measured after 24 hrs by Western blot analysis; assay type: functional, cell-based
# [4] = test system: Mus musculus; assay: (§1) Antiinflammatory activity in DBA/1 mouse model of collagen-induced arthritis assessed as CD4 and CD8-double positive cell expression in lymph node derived lymphocytes at 10 mg/kg/day, po administered starting from day 30 and measured on day 63 by APC-conjugated anti-mouse CD4 and FITC-conjugated anti-mouse CD8 staining based flow cytometry relative to control; assay type: functional; conditions: time 33 day
# [5] = test system: Mus musculus; assay: Antiinflammatory activity in DBA/1 mouse model of collagen-induced arthritis assessed as reduction in IL-1beta mRNA expression in joint tissue at 10 mg/kg/day, po administered starting from day 30 and measured on day 63 by RT-PCR analysis; assay type: functional, organism-based; conditions: time 33.0 day
# [6] = test system: Mus musculus; assay: as §1, with “CD8-positive” for “CD4 and CD8-double positive”, “spleen” for “lymph node derived”; assay type: functional; conditions: time 33 day
# [7] = test system: Mus musculus; assay: as §1, with “CD8- double” for “CD8-double”, “spleen” for “lymph node derived”; assay type: functional; conditions: time 33 day
# [8] = test system: Mus musculus; assay: as §1, with “CD4-positive” for “CD4 and CD8-double positive”, “spleen” for “lymph node derived”; assay type: functional; conditions: time 33 day
# [9] = test system: Mus musculus; assay: Antiinflammatory activity in DBA/1 mouse model of collagen-induced arthritis assessed as reduction in cartilage destruction at 10 mg/kg/day, po administered starting from day 30 and measured on day 63 by H and E/Safranin O staining based microscopic analysis; assay type: functional, organism-based; conditions: time 33.0 day
# [10] = test system: Mus musculus; assay: as §1, with “CD4-positive” for “CD4 and CD8-double positive”; assay type: functional; conditions: time 33 day
# [11] = test system: Mus musculus; assay: Antiinflammatory activity in DBA/1 mouse model of collagen-induced arthritis assessed as reduction in IL-6 mRNA expression in joint tissue at 10 mg/kg/day, po administered starting from day 30 and measured on day 63 by RT-PCR analysis; assay type: functional, organism-based; conditions: time 33.0 day
# [12] = test system: RAW264.7; assay: Inhibition of LPS-induced nitric oxide production in mouse RAW264.7 cells measured after 24 hrs by Griess reagent based assay; assay type: functional, cell-based; conditions: RAW264.7, 24 h
# [13] = test system: Rattus norvegicus; assay: Antiinflammatory activity in Lewis rat model of adjuvant-induced arthritis assessed as reduction in arthritis score at 10 mg/kg/day, po administered starting from day 14; assay type: functional, organism-based
# [14] = test system: Mus musculus; assay: Antiinflammatory activity in DBA/1 mouse model of collagen-induced arthritis assessed as reduction in arthritis score at 10 mg/kg/day, po administered starting from day 30; assay type: functional, organism-based
# [15] = test system: RAW264.7; assay: Cytotoxicity against mouse RAW264.7 cells assessed as reduction in cell viability measured after 24 hrs by MTT assay; assay type: cell-based; conditions: RAW264.7, 24 h
# [16] = test system: Rattus norvegicus; assay: Antiinflammatory activity in Lewis rat model of adjuvant-induced arthritis assessed as reduction in disease symptom at 10 mg/kg/day, po administered starting from day 14; assay type: functional, organism-based
# [17] = test system: Mus musculus; assay: Antiinflammatory activity in DBA/1 mouse model of collagen-induced arthritis assessed as reduction in paw redness at 10 mg/kg/day, po administered starting from day 30; assay type: functional, organism-based
# [18] = test system: Rattus norvegicus; assay: Antiinflammatory activity in Lewis rat model of adjuvant-induced arthritis assessed as improvement in disease pathology at 10 mg/kg/day, po administered starting from day 14 and measured on day 28 by H and E/Safranin O staining based microscopic analysis; assay type: functional, organism-based; conditions: time 14.0 day
# [19] = test system: Mus musculus; assay: Antiinflammatory activity in DBA/1 mouse model of collagen-induced arthritis assessed as appearance of intact joint structure at 10 mg/kg/day, po administered starting from day 30 and measured on day 63 by H and E/Safranin O staining based microscopic analysis; assay type: functional, organism-based; conditions: time 33.0 day
# [20] = test system: Mus musculus; assay: Antiinflammatory activity in DBA/1 mouse model of collagen-induced arthritis assessed as reduction in TNFalpha mRNA expression in joint tissue at 10 mg/kg/day, po administered starting from day 30 and measured on day 63 by RT-PCR analysis; assay type: functional, organism-based; conditions: time 33.0 day
# [21] = test system: Mus musculus; assay: as §1, with “CD8-positive” for “CD4 and CD8-double positive”; assay type: functional; conditions: time 33 day
compound,measurement,setting,value
COc1cc(O)c(C(=O)/C(F)=C/c2ccccc2)c(OC)c1,inhibition at 10 µM,[1],47.4%
O=C(/C=C/c1ccccc1O)c1ccsc1,IC50,[2],5.75 µM
COc1cc(O)c(C(=O)/C=C/c2ccc(OCCCN3CCOCC3)c(OC)c2)c(OC)c1,inhibition,[3],Dose-dependent effect
same,Activity,[4],2.13%
same,Activity,[5],Active
same,Activity,[6],28.7%
same,Activity,[7],0.527%
same,Activity,[8],39.1%
same,Activity,[9],Active
same,Activity,[10],29.3%
same,Activity,[11],Active
same,IC50,[12],6.4 µM
same,inhibition at 10 µM,[1],84%
same,Activity,[13],Active
same,Activity,[14],Active
same,IC50,[15],> 80 µM
same,Activity,[16],Active
same,Activity,[17],Active
same,Activity,[18],Active
same,Activity,[19],Active
same,Activity,[20],Active
same,Activity,[21],27.4%
COc1cccc(CCC(=O)c2c(O)cc(OC)cc2OC)c1,inhibition at 10 µM,[1],52.2%
COc1cc(O)c(C(=O)/C(F)=C/c2ccc(O)cc2)c(OC)c1,inhibition at 10 µM,[1],70%
COc1cc(O)c(C(=O)/C=C/c2ccc(OCCO)cc2)c(OC)c1,inhibition at 10 µM,[1],73.6%
COc1cccc(C(=O)/C=C/c2cc(OC)c(OC)c(OC)c2)c1,IC50,[2],2.88 µM
COc1cccc(/C=C/C(=O)c2ccc(OC)cc2O)c1,IC50,[12],3.2 µM
same,inhibition at 10 µM,[1],82.5%
same,IC50,[15],29.7 µM
CC(C)=CCc1c(O)ccc(C(=O)/C=C/c2ccc(O)cc2)c1O [ISOBAVACHALCONE],IC50,[2],1.6 µM
COc1cc(O)c(C(=O)/C(C)=C/c2ccccc2)c(OC)c1,inhibition at 10 µM,[1],57.5%
COc1ccc(/C=C(\F)C(=O)c2c(O)cc(OC)cc2OC)cc1,inhibition at 10 µM,[1],50.3%
COc1cc(C(=O)/C=C/c2cc(OC)c(OC)c(OC)c2)ccc1O,IC50,[2],4.19 µM
COc1ccc(OC)c(C(=O)/C=C/c2ccc(N(C)C)cc2)c1,IC50,[2],0.7 µM
COc1cc(O)c(C(=O)/C=C/c2cc(OC)c(OC)c(OC)c2)c(OC)c1,inhibition at 10 µM,[1],77.4%
COc1cccc(O)c1C(=O)/C=C/c1cccc(Br)c1,IC50,[2],7.8 µM
COc1cccc(/C=C/C(=O)c2c(OC)cc(OC)cc2OC(C)=O)c1,IC50,[12],3.6 µM
same,inhibition at 10 µM,[1],84.6%
same,IC50,[15],30.7 µM
COc1cccc(C2CC(=O)c3c(OC)cc(OC)cc3O2)c1 (stereo not given),inhibition at 10 µM,[1],57.3%
COc1cccc(/C=C/C(=O)c2c(O)cc(OC)cc2OC)c1,IC50,[12],2.4 µM
same,inhibition at 10 µM,[1],86.9%
same,IC50,[15],34 µM
COc1ccc(/C=C/C(=O)c2ccccc2O)cc1,inhibition at 10 µM,[1],76.7%
COc1cc(O)c(C(=O)/C=C/c2cc(OC)c(OC)cc2OC)c(OC)c1,inhibition at 10 µM,[1],78.4%
COc1cccc(O)c1C(=O)/C=C/c1ccccc1,IC50,[2],9.6 µM
COc1cc(O)c(C(=O)/C=C/c2cc(OC)c(OC)c([N+](=O)[O-])c2)c(OC)c1,inhibition at 10 µM,[1],30.8%
COc1cc(O)c(C(=O)/C=C/c2ccccc2)c(OC)c1 [FLAVOKAWAIN B],IC50,[12],4.2 µM
same,inhibition at 10 µM,[1],80.6%
same,IC50,[15],26.5 µM
COc1cc(O)c(C(=O)/C=C/c2ccc(OC)c(OC)c2)c(OC)c1,inhibition at 10 µM,[1],78.7%
COc1cc(O)c(C(=O)/C=C/c2ccc(OC)c(Br)c2)c(OC)c1,inhibition at 10 µM,[1],73.8%
CC1(C)C=Cc2cc(/C=C/C(=O)c3ccc(O)cc3O)ccc2O1,IC50,[2],2.2 µM
COc1cccc(/C=C(\C)C(=O)c2c(O)cc(OC)cc2OC)c1,inhibition at 10 µM,[1],68.3%
COc1cc(O)c(C(=O)/C=C/c2ccc(OCCCN3CCCCC3)c(OC)c2)c(OC)c1,inhibition at 10 µM,[1],74.8%

# Reference: ChEMBL document CHEMBL4765281, “Development of a novel nitric oxide (NO) production inhibitor with potential therapeutic effect on chronic inflammation” (Eur J Med Chem, 2020)
